Source: ChEMBL document CHEMBL3808371, “Design, synthesis and biological evaluation of diaziridinyl quinone isoxazole hybrids” (Eur J Med Chem, 2016)
In brackets after ≈: the same amount, converted by molar mass.

What was measured:
Bacillus subtilis [1] = assay: Bactericidal activity against Bacillus subtilis MTCC 121 after 24 hrs by serial dilution method; format: functional; conditions: MTCC 121, 24 h
Candida albicans [2] = assay: Fungicidal activity against Candida albicans MTCC 1637 after 24 hrs by serial dilution method; format: functional; conditions: MTCC 1637, 24 h
Pseudomonas aeruginosa = assay: Antimicrobial activity against Pseudomonas aeruginosa MTCC 2453 after 24 hrs by well diffusion method; format: functional; conditions: MTCC 2453, 24 h
Candida albicans [3] = assay: Antimicrobial activity against Candida albicans MTCC 854 after 24 hrs by well diffusion method; format: functional; conditions: MTCC 854, 24 h
Micrococcus luteus [4] = assay: Bactericidal activity against Micrococcus luteus MTCC 2470 after 24 hrs by serial dilution method; format: functional; conditions: MTCC 2470, 24 h
Nakaseomyces glabratus [5] = assay: Fungicidal activity against Candida glabrata MTCC 3019 after 24 hrs by serial dilution method; format: functional; conditions: MTCC 3019, 24 h
Bacillus subtilis [6] = assay: Antibiofilm activity against Bacillus subtilis MTCC 121 after 24 hrs by crystal violet staining based assay; format: functional, organism-based; conditions: MTCC 121, 24 h
[7] = Cytotoxicity against human PC3 cells after 72 hrs by XTT assay; format: functional, cell-based; conditions: PC-3, 72 h
Candida albicans [8] = assay: Antimicrobial activity against Candida albicans MTCC 3958 after 24 hrs by well diffusion method; format: functional; conditions: MTCC 3958, 24 h
Candida parapsilosis [9] = assay: Antimicrobial activity against Candida parapsilosis MTCC 1744 after 24 hrs by well diffusion method; format: functional; conditions: Lodderomyces parapsilosis, MTCC 1744, 24 h
Bacillus subtilis [10] = assay: Antimicrobial activity against Bacillus subtilis MTCC 121 after 24 hrs by well diffusion method; format: functional; conditions: MTCC 121, 24 h
Candida albicans [11] = assay: Antimicrobial activity against Candida albicans MTCC 227 after 24 hrs by well diffusion method; format: functional; conditions: MTCC 227, 24 h
Nakaseomyces glabratus [12] = assay: Antimicrobial activity against Candida glabrata MTCC 3019 after 24 hrs by well diffusion method; format: functional; conditions: MTCC 3019, 24 h
Candida albicans [13] = assay: Antimicrobial activity against Candida albicans MTCC 3018 after 24 hrs by well diffusion method; format: functional; conditions: MTCC 3018, 24 h
Escherichia coli = assay: Antimicrobial activity against Escherichia coli MTCC 739 after 24 hrs by well diffusion method; format: functional; conditions: MTCC 739, 24 h
Candida albicans [14] = assay: Fungicidal activity against Candida albicans MTCC 854 after 24 hrs by serial dilution method; format: functional; conditions: MTCC 854, 24 h
Candida parapsilosis [15] = assay: Fungicidal activity against Candida parapsilosis MTCC 1744 after 24 hrs by serial dilution method; format: functional; conditions: Lodderomyces parapsilosis, MTCC 1744, 24 h
Pichia kudriavzevii [16] = assay: Fungicidal activity against Candida krusei MTCC 3020 after 24 hrs by serial dilution method; format: functional; conditions: MTCC 3020, 24 h
Candida albicans [17] = assay: Antimicrobial activity against Candida albicans MTCC 7315 after 24 hrs by well diffusion method; format: functional; conditions: MTCC 7315, 24 h
Candida albicans [18] = assay: Antimicrobial activity against Candida albicans MTCC 183 after 24 hrs by well diffusion method; format: functional; conditions: MTCC 183, 24 h
Candida albicans [19] = assay: Fungicidal activity against Candida albicans MTCC 3958 after 24 hrs by serial dilution method; format: functional; conditions: MTCC 3958, 24 h
Staphylococcus aureus [20] = assay: Antibiofilm activity against Staphylococcus aureus MTCC 96 after 24 hrs by crystal violet staining based assay; format: functional, organism-based; conditions: MTCC 96, 24 h
Candida albicans [21] = assay: Fungicidal activity against Candida albicans MTCC 227 after 24 hrs by serial dilution method; format: functional; conditions: MTCC 227, 24 h
Staphylococcus aureus [22] = assay: Bactericidal activity against Staphylococcus aureus MLS16 MTCC 2940 after 24 hrs by serial dilution method; format: functional; conditions: MLS16 MTCC 2940, 24 h
[Candida] aaseri [23] = Antimicrobial activity against Candida aaseri MTCC 1962 after 24 hrs by well diffusion method; format: functional; conditions: Yamadazyma aaseri, MTCC 1962, 24 h
Micrococcus luteus [24] = assay: Antimicrobial activity against Micrococcus luteus MTCC 2470 after 24 hrs by well diffusion method; format: functional; conditions: MTCC 2470, 24 h
Pichia sporocuriosa [25] = assay: Fungicidal activity against Issatchenkia hanoiensis MTCC 4755 after 24 hrs by serial dilution method; format: functional; conditions: MTCC 4755, 24 h
Candida albicans [26] = assay: Fungicidal activity against Candida albicans MTCC 3018 after 24 hrs by serial dilution method; format: functional; conditions: MTCC 3018, 24 h
Pichia kudriavzevii [27] = assay: Antimicrobial activity against Candida krusei MTCC 3020 after 24 hrs by well diffusion method; format: functional; conditions: MTCC 3020, 24 h
[Candida] aaseri [28] = Fungicidal activity against Candida aaseri MTCC 1962 after 24 hrs by serial dilution method; format: functional; conditions: Yamadazyma aaseri, MTCC 1962, 24 h
Raoultella planticola [29] = assay: Antibiofilm activity against Klebsiella planticola MTCC 530 after 24 hrs by crystal violet staining based assay; format: functional, organism-based; conditions: MTCC 530, 24 h
Staphylococcus aureus [30] = assay: Bactericidal activity against Staphylococcus aureus MTCC 96 after 24 hrs by serial dilution method; format: functional; conditions: MTCC 96, 24 h
Candida albicans [31] = assay: Fungicidal activity against Candida albicans MTCC 183 after 24 hrs by serial dilution method; format: functional; conditions: MTCC 183, 24 h
Candida albicans [32] = assay: Fungicidal activity against Candida albicans MTCC 3017 after 24 hrs by serial dilution method; format: functional; conditions: MTCC 3017, 24 h
Raoultella planticola [33] = assay: Bactericidal activity against Klebsiella planticola MTCC 530 after 24 hrs by serial dilution method; format: functional; conditions: MTCC 530, 24 h
Micrococcus luteus [34] = assay: Antibiofilm activity against Micrococcus luteus MTCC 2470 after 24 hrs by crystal violet staining based assay; format: functional, organism-based; conditions: MTCC 2470, 24 h
Candida albicans [35] = assay: Antimicrobial activity against Candida albicans MTCC 4748 after 24 hrs by well diffusion method; format: functional; conditions: MTCC 4748, 24 h
Candida albicans [36] = assay: Antimicrobial activity against Candida albicans MTCC 1637 after 24 hrs by well diffusion method; format: functional; conditions: MTCC 1637, 24 h
Staphylococcus aureus [37] = assay: Antimicrobial activity against Staphylococcus aureus MLS16 MTCC 2940 after 24 hrs by well diffusion method; format: functional; conditions: MLS16 MTCC 2940, 24 h
Pichia sporocuriosa [38] = assay: Antimicrobial activity against Issatchenkia hanoiensis MTCC 4755 after 24 hrs by well diffusion method; format: functional; conditions: MTCC 4755, 24 h
Candida albicans [39] = assay: Fungicidal activity against Candida albicans MTCC 4748 after 24 hrs by serial dilution method; format: functional; conditions: MTCC 4748, 24 h
A549 [40] = assay: Cytotoxicity against human A549 cells after 72 hrs by XTT assay; format: functional, cell-based; conditions: A549, 72 h
Candida albicans [41] = assay: Antimicrobial activity against Candida albicans MTCC 3017 after 24 hrs by well diffusion method; format: functional; conditions: MTCC 3017, 24 h
Staphylococcus aureus [42] = assay: Antibiofilm activity against Staphylococcus aureus MLS16 MTCC 2940 after 24 hrs by crystal violet staining based assay; format: functional, organism-based; conditions: MLS16 MTCC 2940, 24 h
Raoultella planticola [43] = assay: Antimicrobial activity against Klebsiella planticola MTCC 530 after 24 hrs by well diffusion method; format: functional; conditions: MTCC 530, 24 h
Staphylococcus aureus [44] = assay: Antimicrobial activity against Staphylococcus aureus MTCC 96 after 24 hrs by well diffusion method; format: functional; conditions: MTCC 96, 24 h
Candida albicans [45] = assay: Fungicidal activity against Candida albicans MTCC 7315 after 24 hrs by serial dilution method; format: functional; conditions: MTCC 7315, 24 h
A549 [46] = assay: Selectivity ratio of IC50 for human A549 cells to IC50 for human PC3 cells; format: functional

Structure (SMILES): O=C1C=C(N2CC2)C(=O)C(c2cc(-c3ccc(C(=O)N4CCOCC4)s3)on2)=C1N1CC1
- MBC (Bacillus subtilis [1]): 3.9 µg/mL (≈ 8.62 µM)
- MFC (Candida albicans [2]): 62.5 µg/mL (≈ 138 µM)
- MIC (Pseudomonas aeruginosa): > 125 µg/mL
- MIC (Candida albicans [3]): 7.8 µg/mL (≈ 17.2 µM)
- MBC (Micrococcus luteus [4]): 31.2 µg/mL (≈ 69 µM)
- MFC (Nakaseomyces glabratus [5]): 125 µg/mL (≈ 276 µM)
- IC50 (Bacillus subtilis [6]): 2800 nM
- IC50 [7]: 1400 nM
- MIC (Candida albicans [8]): 15.6 µg/mL (≈ 34.5 µM)
- MIC (Candida parapsilosis [9]): 15.6 µg/mL (≈ 34.5 µM)
- MIC (Bacillus subtilis [10]): 3.9 µg/mL (≈ 8.62 µM)
- MIC (Candida albicans [11]): 7.8 µg/mL (≈ 17.2 µM)
- MIC (Nakaseomyces glabratus [12]): 31.2 µg/mL (≈ 69 µM)
- MIC (Candida albicans [13]): 62.5 µg/mL (≈ 138 µM)
- MIC (Escherichia coli): > 125 µg/mL
- MFC (Candida albicans [14]): 15.6 µg/mL (≈ 34.5 µM)
- MFC (Candida parapsilosis [15]): 62.5 µg/mL (≈ 138 µM)
- MFC (Pichia kudriavzevii [16]): 15.6 µg/mL (≈ 34.5 µM)
- MIC (Candida albicans [17]): 62.5 µg/mL (≈ 138 µM)
- MIC (Candida albicans [18]): 15.6 µg/mL (≈ 34.5 µM)
- MFC (Candida albicans [19]): 62.5 µg/mL (≈ 138 µM)
- IC50 (Staphylococcus aureus [20]): 2500 nM
- MFC (Candida albicans [21]): 31.2 µg/mL (≈ 69 µM)
- MBC (Staphylococcus aureus [22]): 3.9 µg/mL (≈ 8.62 µM)
- MIC ([Candida] aaseri [23]): 31.2 µg/mL (≈ 69 µM)
- MIC (Micrococcus luteus [24]): 15.6 µg/mL (≈ 34.5 µM)
- MFC (Pichia sporocuriosa [25]): 31.2 µg/mL (≈ 69 µM)
- MFC (Candida albicans [26]): 125 µg/mL (≈ 276 µM)
- MIC (Pichia kudriavzevii [27]): 7.8 µg/mL (≈ 17.2 µM)
- MFC ([Candida] aaseri [28]): 125 µg/mL (≈ 276 µM)
- IC50 (Raoultella planticola [29]): 5100 nM
- MBC (Staphylococcus aureus [30]): 7.8 µg/mL (≈ 17.2 µM)
- MFC (Candida albicans [31]): 31.2 µg/mL (≈ 69 µM)
- MFC (Candida albicans [32]): 15.6 µg/mL (≈ 34.5 µM)
- MBC (Raoultella planticola [33]): 15.6 µg/mL (≈ 34.5 µM)
- IC50 (Micrococcus luteus [34]): 9800 nM
- MIC (Candida albicans [35]): 31.2 µg/mL (≈ 69 µM)
- MIC (Candida albicans [36]): 31.2 µg/mL (≈ 69 µM)
- MIC (Staphylococcus aureus [37]): 3.9 µg/mL (≈ 8.62 µM)
- MIC (Pichia sporocuriosa [38]): 15.6 µg/mL (≈ 34.5 µM)
- MFC (Candida albicans [39]): 125 µg/mL (≈ 276 µM)
- IC50 (A549 [40]): 1500 nM
- MIC (Candida albicans [41]): 7.8 µg/mL (≈ 17.2 µM)
- IC50 (Staphylococcus aureus [42]): 1900 nM
- MIC (Raoultella planticola [43]): 7.8 µg/mL (≈ 17.2 µM)
- MIC (Staphylococcus aureus [44]): 3.9 µg/mL (≈ 8.62 µM)
- MFC (Candida albicans [45]): 125 µg/mL (≈ 276 µM)

Structure (SMILES): CN(Cc1ccc(F)cc1)C(=O)c1ccc(-c2cc(C3=C(N4CC4)C(=O)C=C(N4CC4)C3=O)no2)s1
- MBC (Bacillus subtilis [1]): 62.5 µg/mL (≈ 124 µM)
- MIC (Pseudomonas aeruginosa): > 125 µg/mL
- Ratio IC50 (A549 [46]): 30
- MBC (Micrococcus luteus [4]): > 125 µg/mL
- IC50 [7]: 500 nM
- MIC (Bacillus subtilis [10]): 15.6 µg/mL (≈ 30.9 µM)
- MIC (Escherichia coli): > 125 µg/mL
- MBC (Staphylococcus aureus [22]): > 125 µg/mL
- MIC (Micrococcus luteus [24]): 31.2 µg/mL (≈ 61.8 µM)
- MBC (Staphylococcus aureus [30]): > 125 µg/mL
- MBC (Raoultella planticola [33]): > 125 µg/mL
- MIC (Staphylococcus aureus [37]): 31.2 µg/mL (≈ 61.8 µM)
- IC50 (A549 [40]): 15300 nM
- MIC (Candida albicans [41]): > 125 µg/mL
- MIC (Raoultella planticola [43]): > 125 µg/mL
- MIC (Staphylococcus aureus [44]): 62.5 µg/mL (≈ 124 µM)
